Patent US20220025419A1, “N-GLYCOSYLATION OF PEPTIDES AND PROTEINS” (priority 2013, published 2022)

Assays:
PglB [1] = molecular target: T1, PglB (Campylobacter jejuni subsp. jejuni serotype O:2, UniProt Q0P9C8); conditions: glycolipid 1-200 μM, peptide 20 μM, PglB 0.44 μM, reaction time <2 h, duplicate
Method: Reaction mixtures were prepared as described above in Example 6 and incubated in a thermo cycler for 2 h at 30° C. Glycosylation was terminated by flash increasing of temperature to 95° C. for 2 minutes. Peptide mixtures were cleaned up and subjected to UPLC. The separation of the glycosylated peptide from unglycosylated was achieved by normal phase using Waters Acquity UPLC column (BEH glycan, 2.1×150 mm, 1.7-μm particles). Concentration of un- and glycosylated peptides was measured by calculating the area of corresponding peaks (FIG. 3.)

PglB [2] = molecular target: T1, PglB; assay: Synthetic optimization of peptide glycosylation by PglB, HPLC/LC-MS conversion; assay type: biochemical; design: 10His (C); made in house; host or cells: E. coli Rosetta; conditions: peptide:glycolipid 1:5, RT overnight, HPLC peak areas, FIG. 2a
Method: To a 10 μL of purified PglB (40 μM) in 1.5 mL eppendorf tube was added 34 μL of buffer (HEPES 10 mM, pH 7.5 containing 1 mM MnCl2 and 1% Triton-X 100). […] For the gel analysis, 8 μL of reaction mixture was treated with 2 μL of 4X SDS sample buffer and heated to 90° C. for 5 minutes. Analytical HPLC was carried out on a Waters 2795 separation module HPLC instrument equipped with a Jasco FP-920 Intelligent Fluorescent Detector (Excitation at 542 nm, Emission at 572 nm). Phenomenex Jupiter 4μ proteo 90A (250×4.6 mm) column was used with a gradient of 0-20%, 20-45%, 45-95% Acetonitrile with 0.1% formic acid at a flow rate of 1 ml/min. Product eluted with a retention time of 6.6 min and identification was performed using the Micromass LCT (TOF ESI). Conversion of the reaction was quantified by integration of the respective peak areas of product and remaining starting peptide.

PglB [3] = molecular target: T1, PglB; assay: In vitro glycosylation of AcrA protein by PglB, ES-MS analysis; assay type: biochemical; design: 10His (C); made in house; host or cells: E. coli Rosetta; conditions: AcrA-His6 129 pmol, glycolipid 25.6 nmol, 25° C., 36 hours
From the text: Using the process described in Example 6a the two consensus Asn sites in the C. jejuni AcrA protein (overexpressed and purified from E. coli using pET24 (AcrA-Cys) according to the literature protocol [Kowarik, M. et. al., Science, 2006, 314, 1148-1150; Lazar, M. N. et. al., Glycobiology, 2005, 15 (4), 361-367]) were glycosylated using glycolipid substrates (Examples 2 and 4).

T1 sequence (Q0P9C8 whole entry): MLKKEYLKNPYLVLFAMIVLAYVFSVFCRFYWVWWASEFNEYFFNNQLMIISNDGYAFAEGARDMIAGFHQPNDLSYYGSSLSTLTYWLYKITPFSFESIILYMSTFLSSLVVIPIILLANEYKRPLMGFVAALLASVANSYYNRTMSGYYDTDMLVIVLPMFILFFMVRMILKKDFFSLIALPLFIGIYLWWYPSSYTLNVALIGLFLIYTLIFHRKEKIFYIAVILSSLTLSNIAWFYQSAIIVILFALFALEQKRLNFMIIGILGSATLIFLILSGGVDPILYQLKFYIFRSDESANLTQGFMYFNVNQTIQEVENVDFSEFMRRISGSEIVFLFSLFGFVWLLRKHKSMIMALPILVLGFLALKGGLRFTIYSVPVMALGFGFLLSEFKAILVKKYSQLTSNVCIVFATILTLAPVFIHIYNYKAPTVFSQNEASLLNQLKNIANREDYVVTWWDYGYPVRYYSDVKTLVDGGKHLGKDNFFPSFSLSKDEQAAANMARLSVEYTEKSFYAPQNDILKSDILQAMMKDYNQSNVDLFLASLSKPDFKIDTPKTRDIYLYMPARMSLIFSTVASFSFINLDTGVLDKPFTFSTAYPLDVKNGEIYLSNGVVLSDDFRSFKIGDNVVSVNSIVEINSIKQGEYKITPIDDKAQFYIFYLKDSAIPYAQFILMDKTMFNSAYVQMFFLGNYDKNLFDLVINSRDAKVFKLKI

| SMILES | Km (PglB [1]) | kcat (PglB [1]) | conversion, optimised glycosylation of TAMRA-peptide (PglB [2]) | conversion to the diglycosylated AcrA protein (PglB [3]) |
| --- | --- | --- | --- | --- |
| CC(=O)NC1C(O)[C@H](O)C(CO)O[C@@H]1OP(=O)(O)OP(=O)(O)OC/C=C(/C)CC/C=C(/C)CC/C=C(/C)CC/C=C(/C)CC/C=C(/C)CC/C=C(\C)CC/C=C(\C)CCC=C(C)C (stereo partly drawn) [Comparative Example 5, P^1-2-Acetamido-2-deoxy-α-D-glucopyranosyl P^2-(2Z,6Z,10Z,14Z,18Z,22E,26E)-3,7,11,15,19,23,27,31-octamethyldotriaconta-2,6,10,14,18,22,26,30-octaen-1-yl diphosphate, reference compound] | 34 ± 10 µM | 0.000375 ± 3.5e-05 s⁻¹ | – | – |
| CC(=O)NC1[C@@H](OP(=O)(O)OP(=O)(O)OC/C=C(/C)CC/C=C(/C)CC/C=C(/C)CCC=C(C)C)OC(CO)[C@@H](O)[C@@H]1O (stereo partly drawn) [Example 1, P^1-2-Acetamido-2-deoxy-α-D-glucopyranosyl P^2-(2Z,6Z,10Z)-3,7,11,15-tetramethyl hexadeca-2,6,10,14-tetraen-1-yl diphosphate] | 77 ± 16 µM | 0.00039 ± 3.5e-05 s⁻¹ | – | – |
| CC(=O)NC1[C@@H](OP(=O)([O-])OP(=O)([O-])OC/C=C(/C)CC/C=C(/C)CC/C=C(/C)CC/C=C(/C)CC/C=C(\C)CCC=C(C)C)OC(CO)[C@@H](O)[C@@H]1O.[Na+].[Na+] (stereo partly drawn) [Example 4, P^1-2-Acetamido-2-deoxy-α-D-glucopyranosyl P^2-(2Z,6Z,10Z,14Z,18E)-3,7,11,15,19,23-hexamethyltetraicosa-2,6,10,14,18,22-hexaen-1-yl diphosphate] | 55 ± 10 µM | 0.000385 ± 2.67e-05 s⁻¹ | 92% | > 95% |
